From publication PMC5458547, “Discovery of first-in-class reversible dual small molecule inhibitors against G9a and DNMTs in hematological malignancies” (Nature Communications, 2017) come the findings set out here.

Common to all, as to test: Cell proliferation assay (MTS)
Format in all cases: cell-based

In one experiment the test system is SU-DHL-4. Conditions: Homo sapiens, GC-DLBCL, 48 h.
The next experiment has as its system 5637. The following applies: Homo sapiens; Bladder.
Another experiment has as its system J82. Conditions: Homo sapiens, Bladder.

The structures appear in SMILES notation.

Consider `COc1cc2c(NC3CCN(C)CC3)cc(-c3ccc(C)o3)nc2cc1OCCCN1CCCC1` [CM-272, 6-methoxy-2-(5-methyl-2-furyl)-N-(1-methyl-4-piperidyl)-7-(3-pyrrolidin-1-ylpropoxy)quinolin-4-amine], for which the GI50 with SU-DHL-4 was 1160 nM; in the experiment on 5637, 717 nM; in the experiment with J82, more than 10000 nM.
